Laboratory results reported in US5104895A, “Platinum(II) complexes, their preparation and use as anti-tumor agents” (Boehringer Mannheim Italia S.p.A., priority 1988, dated 1992).

Columns and labels:
[1] = tested on: murine L1210 leukaemia; assay: in vivo murine L1210 leukaemia
Excerpt: (§1) "In vivo" experiments including: a murine leukaemia and murine L1210 leukaemia / cisplatin resistant (i.p. drug administration day 1 after i.p. injection of 10^6 tumour cells day 0); b) advanced M 5076 ovarian carcinoma in female mice (i.m. injection of 5.10^5 cell day 0, drug administration q7d×3) are based on classical models that allow a preliminary evaluation of efficacy and toxicity of the novel agent in comparison with a well-stated reference drug. The evaluated parameters are toxic death, median survival time (T/C %) and long term survivals (60 days).

[2] = tested on: L1210 resistant line; assay: in vivo murine L1210 leukaemia / cisplatin resistant
Excerpt: as §1

[3] = tested on: M5076 ovarian carcinoma; assay: advanced M 5076 ovarian carcinoma in female mice; type: in vivo
Excerpt: as §1

[4] = tested on: tumours in patients; details: human, in vivo; cited from earlier work
[5] = cited from earlier work
[6] = tested on: cervix epithelioma; assay: MTT assay, cervix epithelioid carcinoma; type: cell-based, human; details: in vitro
Excerpt: The "in vitro" testing procedure has been based on the "MTT assay on human tumor cell lines" (T. Mosmann, J Immunol. Meth., 65, 55, 1983). According to N.C.I screening program for new anticancer drugs, the evaluation of the anti-tumour activity has been performed against groups of cell lines each representing a major category of human malignancy. Human cell (for ex. cervix epithelioid carcinoma, melanoma, fibrosarcoma and vulvar leiomyosarcoma cultures have been adapted to grow in complete RPMI 1640 medium; the compounds were added to 24 hours cultures and incubated for 72 and 160 hours.

[7] = cisplatin at 7 and 10 mg/kg, i.p. day 1

## N.N.[Cl][Pt][Cl] [cisplatin, cis-diammino-dichloro-platinum, reference compound]
[1]; [7]
  long term survivals (60 days): 1/10
  median survival time (T/C %): 162%
[2]
  median survival time (T/C %): 115%
[3]; equieffective dose levels
  body weight change: marked body weight decrease
[4]
  activity against head and neck squamous cell carcinoma and further listed tumors: a certain activity
  activity against lung tumors (non-small cell), osteogenic sarcoma, Hodgkins lymphoma, melanoma and mammary tumors: a certain, even if limited, activity
  antitumour activity in patients: particularly effective in the treatment of genito-urinary tumours, of neck and head tumours
[5]; following cisplatin use
  side-effects: important gastrointestinal and renal side-effects, haematologic and neurologic complications (ototoxicity)

## cis[(1,1-diaminomethyl-cyclohexane)-3,3-(1,5,8,11,14,17-hexaoxacyclononadecane)cyclobutane]-1,1-dicarboxylate [compound D]
[6]
  antitumour activity compared with cisplatin: more active than cisplatin of about a log. order
[2]
  cross resistance with cisplatin: Lack of cross resistance with cisplatin
  median survival time (T/C %): over 160%

## N.N.O=C([O-])C1(C(=O)[O-])CCC1.[Pt+2] [carboplatin]
[4]
  activity against lung tumors (non-small cell), osteogenic sarcoma, Hodgkins lymphoma, melanoma and mammary tumors: a certain, even if limited, activity
[5]; human, in vivo
  nephrotoxicity compared with cis-platin: less nephrotoxic than cis-platin

## NCCN.O=C([O-])C(CCOCCOCCO)C(=O)[O-].[Pt+2] [reference compound, cis(1,2-diaminoethane)-(8-hydroxy 3,6-dioxaoctane-1-yl-malonate) platinum (II), reference compound]
[1]; at the higher dose level
  toxicity: heavily toxic

## (2R, 3R, 11R, 12R)-1,4-7,10,13,16-hexaoxacyclooctadecane-2,3,11,12-tetracarboxylate-bis- [compound B, (2R, 3R, 11R, 12R)-1,4-7,10,13,16-hexaoxacyclooctadecane-2,3,11,12-tetracarboxylate-bis-[cis(trans-d,l,-1,2)diamino-cyclohexane)-platinum(II)]]
[1]; 20 mg/kg dose level, i.p. day 1
  median survival time (T/C %): 170%
[1]; 20 mg/kg dose level, 60 days
  long term survivor values: 2
[1]; 120 mg/kg
  median survival time (T/C %): 200%
  toxic deaths: 2/10
[1]; 120 mg/kg, 60 days
  long term survivors: 2/10
[1]; i.p.
  DL100: over 200 mg/kg
[2]
  cross resistance with cisplatin: Lack of cross resistance with cisplatin
  median survival time (T/C %): over 160%
[3]; drug administration q7d×3
  tumour growth inhibition potency: comparable with that of cisplatin
[3]; mouse, in vivo
  body weight change: normal body weight increase
